# Data reported in PubChem BioAssay (NCI).
#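 96-well plates; 48 h exposure; 5 concentrations. Endpoints by linear interpolation between flanking doses. Not reached: highest tested concentration assigned. GI50: concentration for 50% inhibition of growth. TGI marks complete inhibition of growth.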
# Legend:
# Test in all cases: DTP human tumour cell line panel, 48 h
# MALME-3M melanoma = system: MALME-3M melanoma
# HL-60(TB) leukemia = system: HL-60(TB) leukemia
# IGROV1 ovarian = system: IGROV1 ovarian
# UO-31 renal = system: UO-31 renal
# UACC-62 melanoma = system: UACC-62 melanoma
# TK-10 renal = system: TK-10 renal
# A498 renal = system: A498 renal
# M14 melanoma = system: M14 melanoma
# NCI-H23 lung = system: NCI-H23 lung
# SNB-19 CNS = system: SNB-19 CNS
# SF-268 CNS = system: SF-268 CNS
# LOX IMVI melanoma = system: LOX IMVI melanoma
# SF-295 CNS = system: SF-295 CNS
# SK-MEL-2 melanoma = system: SK-MEL-2 melanoma
# BT-549 breast = system: BT-549 breast
# OVCAR-3 ovarian = system: OVCAR-3 ovarian
# MCF7 breast = system: MCF7 breast
# MDA-MB-435 = system: MDA-MB-435
# CAKI-1 renal = system: CAKI-1 renal
# 786-0 renal = system: 786-0 renal
# HT29 colon = system: HT29 colon
# SF-539 CNS = system: SF-539 CNS
# PC-3 prostate = system: PC-3 prostate
# HOP-92 NSCLC = system: HOP-92 NSCLC
# HCT-116 colon = system: HCT-116 colon
# NCI-H522 lung = system: NCI-H522 lung
# NCI/ADR-RES ovarian = system: NCI/ADR-RES ovarian
# COLO 205 colon = system: COLO 205 colon
# SK-MEL-5 melanoma = system: SK-MEL-5 melanoma
# DU-145 prostate = system: DU-145 prostate
# SN12C renal = system: SN12C renal
# T-47D breast = system: T-47D breast
# RPMI-8226 leukemia = system: RPMI-8226 leukemia
# K-562 leukemia = system: K-562 leukemia
# SW-620 colon = system: SW-620 colon
# RXF 393 renal = system: RXF 393 renal
# SK-MEL-28 melanoma = system: SK-MEL-28 melanoma
# MOLT-4 leukemia = system: MOLT-4 leukemia
# HOP-62 NSCLC = system: HOP-62 NSCLC
# HS 578T breast = system: HS 578T breast
# SR leukemia = system: SR leukemia
# A549 NSCLC = system: A549 NSCLC
# OVCAR-4 ovarian = system: OVCAR-4 ovarian
# U251 CNS = system: U251 CNS
# SK-OV-3 ovarian = system: SK-OV-3 ovarian
# HCT-15 colon = system: HCT-15 colon
# KM12 colon = system: KM12 colon
# OVCAR-5 ovarian = system: OVCAR-5 ovarian
# HCC-2998 colon = system: HCC-2998 colon
# UACC-257 melanoma = system: UACC-257 melanoma
# MDA-MB-231 breast = system: MDA-MB-231 breast
# CCRF-CEM leukemia = system: CCRF-CEM leukemia
# NCI-H460 lung = system: NCI-H460 lung
# OVCAR-8 ovarian = system: OVCAR-8 ovarian
# SNB-75 CNS = system: SNB-75 CNS
# ACHN renal = system: ACHN renal
# EKVX NSCLC = system: EKVX NSCLC
# NCI-H226 lung = system: NCI-H226 lung
smiles,measurement,setting,value
Cc1ccc(NS(=O)(=O)c2ccc(-c3cnc(C4CC4)o3)cc2)cc1C,GI50,MALME-3M melanoma,683 nM
same,TGI,MALME-3M melanoma,18100 nM
same,GI50,HL-60(TB) leukemia,259 nM
same,TGI,HL-60(TB) leukemia,1460 nM
same,GI50,IGROV1 ovarian,593 nM
same,TGI,IGROV1 ovarian,> 43300 nM
same,GI50,UO-31 renal,839 nM
same,TGI,UO-31 renal,7740 nM
same,GI50,UACC-62 melanoma,383 nM
same,TGI,UACC-62 melanoma,> 38000 nM
same,GI50,TK-10 renal,1440 nM
same,TGI,TK-10 renal,8030 nM
same,GI50,A498 renal,228 nM
same,TGI,A498 renal,932 nM
same,GI50,M14 melanoma,375 nM
same,TGI,M14 melanoma,11800 nM
same,GI50,NCI-H23 lung,1130 nM
same,TGI,NCI-H23 lung,> 57800 nM
same,GI50,SNB-19 CNS,522 nM
same,TGI,SNB-19 CNS,> 63800 nM
same,GI50,SF-268 CNS,1110 nM
same,TGI,SF-268 CNS,> 36800 nM
same,GI50,LOX IMVI melanoma,524 nM
same,TGI,LOX IMVI melanoma,> 32300 nM
same,GI50,SF-295 CNS,407 nM
same,TGI,SF-295 CNS,3470 nM
same,GI50,SK-MEL-2 melanoma,797 nM
same,TGI,SK-MEL-2 melanoma,14400 nM
same,GI50,BT-549 breast,715 nM
same,TGI,BT-549 breast,13700 nM
same,GI50,OVCAR-3 ovarian,342 nM
same,TGI,OVCAR-3 ovarian,12500 nM
same,GI50,MCF7 breast,279 nM
same,GI50,MDA-MB-435,< 25.2 nM
same,TGI,MDA-MB-435,2460 nM
same,GI50,CAKI-1 renal,385 nM
same,TGI,CAKI-1 renal,> 42100 nM
same,GI50,786-0 renal,544 nM
same,TGI,786-0 renal,> 37800 nM
same,GI50,HT29 colon,330 nM
same,TGI,HT29 colon,1570 nM
same,GI50,SF-539 CNS,366 nM
same,TGI,SF-539 CNS,1770 nM
same,GI50,PC-3 prostate,432 nM
same,TGI,PC-3 prostate,> 27600 nM
same,GI50,HOP-92 NSCLC,308 nM
same,TGI,HOP-92 NSCLC,3350 nM
same,GI50,HCT-116 colon,394 nM
same,TGI,HCT-116 colon,10800 nM
same,GI50,NCI-H522 lung,267 nM
same,TGI,NCI-H522 lung,3280 nM
same,GI50,NCI/ADR-RES ovarian,407 nM
same,TGI,NCI/ADR-RES ovarian,> 41800 nM
same,GI50,COLO 205 colon,464 nM
same,TGI,COLO 205 colon,1840 nM
same,GI50,SK-MEL-5 melanoma,390 nM
same,TGI,SK-MEL-5 melanoma,1700 nM
same,GI50,DU-145 prostate,972 nM
same,TGI,DU-145 prostate,> 68700 nM
same,GI50,SN12C renal,711 nM
same,TGI,SN12C renal,> 34000 nM
same,GI50,T-47D breast,373 nM
same,TGI,T-47D breast,16700 nM
same,GI50,RPMI-8226 leukemia,450 nM
same,TGI,RPMI-8226 leukemia,> 25400 nM
same,GI50,K-562 leukemia,< 37.3 nM
same,TGI,K-562 leukemia,> 68400 nM
same,GI50,SW-620 colon,341 nM
same,TGI,SW-620 colon,> 72200 nM
same,GI50,RXF 393 renal,338 nM
same,TGI,RXF 393 renal,3890 nM
same,GI50,SK-MEL-28 melanoma,1260 nM
same,TGI,SK-MEL-28 melanoma,> 45400 nM
same,GI50,MOLT-4 leukemia,583 nM
same,TGI,MOLT-4 leukemia,> 52700 nM
same,GI50,HOP-62 NSCLC,557 nM
same,TGI,HOP-62 NSCLC,> 40100 nM
same,GI50,HS 578T breast,450 nM
same,TGI,HS 578T breast,5770 nM
same,GI50,SR leukemia,476 nM
same,TGI,SR leukemia,> 100000 nM
same,GI50,A549 NSCLC,751 nM
same,TGI,A549 NSCLC,> 49200 nM
same,GI50,OVCAR-4 ovarian,912 nM
same,TGI,OVCAR-4 ovarian,10400 nM
same,GI50,U251 CNS,458 nM
same,TGI,U251 CNS,> 33900 nM
same,GI50,SK-OV-3 ovarian,917 nM
same,TGI,SK-OV-3 ovarian,> 29100 nM
same,GI50,HCT-15 colon,302 nM
same,TGI,HCT-15 colon,> 33200 nM
same,GI50,KM12 colon,279 nM
same,TGI,KM12 colon,> 32600 nM
same,GI50,OVCAR-5 ovarian,1310 nM
same,TGI,OVCAR-5 ovarian,> 38800 nM
same,GI50,HCC-2998 colon,1570 nM
same,TGI,HCC-2998 colon,> 32800 nM
same,GI50,UACC-257 melanoma,836 nM
same,TGI,UACC-257 melanoma,9550 nM
same,GI50,MDA-MB-231 breast,797 nM
same,TGI,MDA-MB-231 breast,15900 nM
same,GI50,CCRF-CEM leukemia,433 nM
same,TGI,CCRF-CEM leukemia,> 59300 nM
same,GI50,NCI-H460 lung,481 nM
same,TGI,NCI-H460 lung,11500 nM
same,GI50,OVCAR-8 ovarian,916 nM
same,TGI,OVCAR-8 ovarian,> 55900 nM
same,GI50,SNB-75 CNS,184 nM
same,TGI,SNB-75 CNS,823 nM
same,GI50,ACHN renal,673 nM
same,TGI,ACHN renal,> 33900 nM
same,GI50,EKVX NSCLC,713 nM
same,TGI,EKVX NSCLC,> 45400 nM
same,GI50,NCI-H226 lung,843 nM
same,TGI,NCI-H226 lung,> 28400 nM
